# Biological target: T1, human TLR7 (Homo sapiens, UniProt Q9NYK1)
# T1 construct: host or cells: HEK-Blue TLR7 cells (engineered human embryonic kidney cells)
# T1 sequence (Q9NYK1 27-1049): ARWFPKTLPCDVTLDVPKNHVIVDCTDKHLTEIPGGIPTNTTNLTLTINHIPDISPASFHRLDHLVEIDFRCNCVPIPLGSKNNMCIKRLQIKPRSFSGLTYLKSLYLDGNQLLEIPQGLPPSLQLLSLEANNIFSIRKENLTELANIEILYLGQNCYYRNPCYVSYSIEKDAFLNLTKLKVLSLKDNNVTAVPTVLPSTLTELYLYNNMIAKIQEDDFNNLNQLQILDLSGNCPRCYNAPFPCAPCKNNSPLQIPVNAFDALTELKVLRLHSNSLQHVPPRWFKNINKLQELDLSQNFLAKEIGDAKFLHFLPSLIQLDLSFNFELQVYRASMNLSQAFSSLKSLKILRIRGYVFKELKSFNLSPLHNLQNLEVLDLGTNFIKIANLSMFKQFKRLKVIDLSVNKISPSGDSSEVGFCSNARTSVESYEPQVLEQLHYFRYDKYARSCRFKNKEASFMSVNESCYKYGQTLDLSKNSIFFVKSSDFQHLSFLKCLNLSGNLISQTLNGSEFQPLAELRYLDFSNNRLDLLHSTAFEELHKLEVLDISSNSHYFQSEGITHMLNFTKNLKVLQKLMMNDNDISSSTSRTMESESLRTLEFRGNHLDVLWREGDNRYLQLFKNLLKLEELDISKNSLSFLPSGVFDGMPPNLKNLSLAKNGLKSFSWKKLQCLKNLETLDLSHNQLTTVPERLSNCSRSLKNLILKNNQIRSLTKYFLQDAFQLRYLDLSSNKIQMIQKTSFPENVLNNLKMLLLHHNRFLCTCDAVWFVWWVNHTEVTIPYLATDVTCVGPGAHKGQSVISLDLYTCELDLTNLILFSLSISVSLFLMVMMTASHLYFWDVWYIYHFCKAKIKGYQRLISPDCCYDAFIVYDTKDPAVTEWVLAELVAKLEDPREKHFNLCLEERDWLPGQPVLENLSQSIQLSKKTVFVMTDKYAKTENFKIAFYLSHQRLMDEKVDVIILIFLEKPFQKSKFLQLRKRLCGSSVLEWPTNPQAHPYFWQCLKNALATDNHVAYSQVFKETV
# Assay: Human TLR7 agonist activity assay (HEK-Blue TLR7 SEAP reporter)
# Format: cell-based
# Settings: HEK-Blue TLR7 cells, 18 h treatment, average where assay performed multiple times, read-out: hTLR7 Agonism EC50
# Description: This procedure describes a method for assaying human TLR7 (hTLR7) agonist activity of the compounds disclosed in this specification.
# HEK-Blue™ TLR7 cells were added to each well of a 384-well tissue-culture plate (15,000 cells per well) and incubated 16-18 h at 37° C., 5% CO2. Compounds (100 nl) were dispensed into wells containing the HEK-Blue™ TLR cells and the treated cells were incubated at 37° C., 5% CO2. After 18 h treatment ten microliters of freshly-prepared Quanti-Blue™ reagent (Invivogen) was added to each well, incubated for 30 min (37° C., 5% CO2) and SEAP levels measured using an Envision plate reader (OD=620 nm). The half maximal effective concentration values (EC50; compound concentration which induced a response halfway between the assay baseline and maximum) were calculated.
row,Structure (SMILES),EC50 [nM]
1,"CCC[C@@H](CCO)Nc1nc(N)nc2cnn(Cc3ncc(C4CCCNC4)cc3OC)c12 (single isomer, unassigned) [Compound 201]",256
2,"CCC[C@@H](CCO)Nc1nc(N)nc2cnn(Cc3ncc(C4CCN(C5CCOC5)CC4)cc3OC)c12 (single isomer, unassigned) [Compound 211]",123
3,"CCC[C@@H](CCO)Nc1nc(N)nc2cnn(Cc3ncc(C4CCN(C5CCOC5)CC4)cc3OC)c12 (single isomer, unassigned) [Compound 212]",6.5
4,"CCCCNc1nc(N)nc2cnn(Cc3ncc(C4CCN(C(CC)CC)CC4)cc3OC)c12 [Compound 130, N7-butyl-1-({3-methoxy-5-[1-(pentan-3-yl)piperidin-4-yl]pyridin-2-yl}methyl)-1H-pyrazolo[4,3-d]pyrimidine-5,7-diamine]",119
5,"COc1cc(C2CCN(CCN(C)C)CC2)cnc1Cn1ncc2nc(N)nc(NCc3cc(C)on3)c21 [Compound 145, 1-[(5-{1-[2-(dimethylamino)ethyl]piperidin-4-yl}-3-methoxypyridin-2-yl)methyl]-N7-[(5-methyl-1,2-oxazol-3-yl)methyl]-1H-pyrazolo[4,3-d]pyrimidine-5,7-diamine]",101
6,"COc1cc(C2CCNCC2)cnc1Cn1ncc2nc(N)nc(NCC3CC4(CC4)C3)c21 [Compound 152, 1-{[3-methoxy-5-(piperidin-4-yl)pyridin-2-yl]methyl}-N7-({spiro[2.3]hexan-5-yl}methyl)-1H-pyrazolo[4,3-d]pyrimidine-5,7-diamine]",111
7,"COc1cc(C2CCN(CCO)CC2)cnc1Cn1ncc2nc(N)nc(NCC3CC4(CC4)C3)c21 [Compound 153, 2-{4-[6-({5-amino-7-[({spiro[2.3]hexan-5-yl}methyl)amino]-1H-pyrazolo[4,3-d]pyrimidin-1-yl}methyl)-5-methoxypyridin-3-yl]piperidin-1-yl}ethan-1-ol]",86.8
8,"COc1cc(C2CCN(C(=O)CCN(C)C)CC2)cnc1Cn1ncc2nc(N)nc(NCC3CC4(CC4)C3)c21 [Compound 155, 1-{4-[6-({5-amino-7-[({spiro[2.3]hexan-5-yl}methyl)amino]-1H-pyrazolo[4,3-d]pyrimidin-1-yl}methyl)-5-methoxypyridin-3-yl]piperidin-1-yl}-3-(dimethylamino)propan-1-one]",199
9,"COc1cc(C2CCN(C(C)C)CC2)cnc1Cn1ncc2nc(N)nc(NCC3CC4(CC4)C3)c21 [Compound 156, 1-({3-methoxy-5-[1-(propan-2-yl)piperidin-4-yl]pyridin-2-yl}methyl)-N7-({spiro[2.3]hexan-5-yl}methyl)-1H-pyrazolo[4,3-d]pyrimidine-5,7-diamine]",40.9
10,"CCCCNc1nc(N)nc2cnn(Cc3ccc(C4CCNCC4)cc3OC)c12 [Compound 160, N7-butyl-1-{[2-methoxy-4-(piperidin-4-yl)phenyl]methyl}-1H-pyrazolo[4,3-d]pyrimidine-5,7-diamine]",13
11,"CCCCNc1nc(N)nc2cnn(Cc3ccc(C4CCN(C(=O)CC(C)(C)O)CC4)cc3OC)c12 [Compound 162, 1-[4-(4-{[5-amino-7-(butylamino)-1H-pyrazolo[4,3-d]pyrimidin-1-yl]methyl}-3-methoxyphenyl)piperidin-1-yl]-3-hydroxy-3-methylbutan-1-one]",12.2
12,"COc1cc(C2CCN(C3CCOCC3)CC2)cnc1Cn1ncc2nc(N)nc(NCc3noc(C)n3)c21 [Compound 200, 1-({3-methoxy-5-[1-(oxan-4-yl)piperidin-4-yl]pyridin-2-yl}methyl)-N7-[(5-methyl-1,2,4-oxadiazol-3-yl)methyl]-1H-pyrazolo[4,3-d]pyrimidine-5,7-diamine]",117
13,"CCC[C@@H](CCO)Nc1nc(N)nc2cnn(Cc3ccc(C4CN(C(=O)CCN(C)C)CCN4)cc3OC)c12 (stereo partly drawn) [Compound 202, 1-(3-{4-[(5-amino-7-{[(3S)-1-hydroxyhexan-3-yl]amino}-1H-pyrazolo[4,3-d]pyrimidin-1-yl)methyl]-3-methoxyphenyl}piperazin-1-yl)-3-(dimethylamino)propan-1-one]",496
14,"CCC[C@@H](CCO)Nc1nc(N)nc2cnn(Cc3ccc(C4CN(C5CCOCC5)CCN4)cc3OC)c12 (stereo partly drawn) [Compound 203, (3S)-3-{[5-amino-1-({2-methoxy-4-[4-(oxan-4-yl)piperazin-2-yl]phenyl}methyl)-1H-pyrazolo[4,3-d]pyrimidin-7-yl]amino}hexan-1-ol]",35
15,"CCC[C@@H](CCO)Nc1nc(N)nc2cnn(Cc3ncc(C4CCN(Cc5ncn(C)n5)CC4)cc3OC)c12 [Compound 204, (3S)-3-({5-amino-1-[(3-methoxy-5-{1-[(1-methyl-1H-1,2,4-triazol-3-yl)methyl]piperidin-4-yl}pyridin-2-yl)methyl]-1H-pyrazolo[4,3-d]pyrimidin-7-yl}amino)hexan-1-ol]",91.1
16,"CCC[C@@H](CCO)Nc1nc(N)nc2cnn(Cc3ncc(C4CCN(CCS(C)(=O)=O)CC4)cc3OC)c12 [Compound 206, (3S)-3-{[5-amino-1-({5-[1-(2-methanesulfonylethyl)piperidin-4-yl]-3-methoxypyridin-2-yl}methyl)-1H-pyrazolo[4,3-d]pyrimidin-7-yl]amino}hexan-1-ol]",74.9
17,"CCC[C@@H](CCO)Nc1nc(N)nc2cnn(Cc3ncc(C4CCN(Cc5ncco5)CC4)cc3OC)c12 [Compound 207, (3S)-3-({5-amino-1-[(3-methoxy-5-{1-[(1,3-oxazol-2-yl)methyl]piperidin-4-yl}pyridin-2-yl)methyl]-1H-pyrazolo[4,3-d]pyrimidin-7-yl}amino)hexan-1-ol]",25.1
18,"CCC[C@@H](CCO)Nc1nc(N)nc2cnn(Cc3ncc(C4CCN(C(=O)CN5CCOCC5)CC4)cc3OC)c12 [Compound 208, 1-(4-{6-[(5-amino-7-{[(3S)-1-hydroxyhexan-3-yl]amino}-1H-pyrazolo[4,3-d]pyrimidin-1-yl)methyl]-5-methoxypyridin-3-yl}piperidin-1-yl)-2-(morpholin-4-yl)ethan-1-one]",168
19,"CCC[C@@H](CCO)Nc1nc(N)nc2cnn(Cc3ccc(C4CN(CC(C)(C)O)CCN4)cc3OC)c12 (stereo partly drawn) [Compound 209, (3S)-3-{[5-amino-1-({4-[4-(2-hydroxy-2-methylpropyl)piperazin-2-yl]-2-methoxyphenyl}methyl)-1H-pyrazolo[4,3-d]pyrimidin-7-yl]amino}hexan-1-ol]",12.3
20,"CCC[C@@H](CCO)Nc1nc(N)nc2cnn(Cc3ncc(C4CCN(C5CCOC5)CC4)cc3OC)c12 (stereo partly drawn) [Compound 210, (3S)-3-{[5-amino-1-({3-methoxy-5-[1-(oxolan-3-yl)piperidin-4-yl]pyridin-2-yl}methyl)-1H-pyrazolo[4,3-d]pyrimidin-7-yl]amino}hexan-1-ol]",9.05
21,"CCC[C@@H](CCO)Nc1nc(N)nc2cnn(Cc3ncc(C4CCN(C5CCN(C)CC5)CC4)cc3OC)c12 [Compound 213, (3S)-3-({5-amino-1-[(3-methoxy-5-{1′-methyl-[1,4′-bipiperidine]-4-yl}pyridin-2-yl)methyl]-1H-pyrazolo[4,3-d]pyrimidin-7-yl}amino)hexan-1-ol]",56.6
22,"CCC[C@@H](CCO)Nc1nc(N)nc2cnn(Cc3ncc(C4CCN(C5CCNCC5)CC4)cc3OC)c12 [Compound 214, (3S)-3-([5-amino-1-[(5-{[1,4′-bipiperidine]-4-yl}-3-methoxypyridin-2-yl)methyl]-1H-pyrazolo[4,3-d]pyrimidin-7-yl}amino)hexan-1-ol]",315
23,"CCC[C@@H](CCO)Nc1nc(N)nc2c(C)nn(Cc3ncc(C4CCN(C5CCOCC5)CC4)cc3OC)c12 [Compound 215, (3S)-3-{[5-amino-1-({3-methoxy-5-[1-(oxan-4-yl)piperidin-4-yl]pyridin-2-yl}methyl)-3-methyl-1H-pyrazolo[4,3-d]pyrimidin-7-yl]amino}hexan-1-ol]",29.8
24,"CCC[C@@H](CCO)Nc1nc(N)nc2cnn(Cc3ccc(C4CCN(C5CCOCC5)CC4)nc3)c12 [Compound 216, (3S)-3-{[5-amino-1-({6-[1-(oxan-4-yl)piperidin-4-yl]pyridin-3-yl}methyl)-1H-pyrazolo[4,3-d]pyrimidin-7-yl]amino}hexan-1-ol]",1540

# Reference: patent publication US20230144824A1, “1H-PYRAZOLO[4,3-d]PYRIMIDINE COMPOUNDS AS TOLL-LIKE RECEPTOR 7 (TLR7) AGONISTS” (BRISTOL-MYERS SQUIBB COMPANY, priority 2020, published 2023)
